Assay results reported in patent US20240158348A1, “HERBICIDAL CYCLIC AMIDES N-SUBSTITUTED WITH A HALOALKYLSULFONYLANILIDE GROUP” (FMC Corporation, priority 2021, published 2024).

Key:
Assay type in all cases: in vivo
[1] = tested on: ryegrass, Italian (Italian ryegrass, Lolium multiflorum); assay: Test C postemergence, Italian ryegrass; settings: for Ryegrass, Italian plant response rating: visual injury, 0 to 100 scale (0 no effect, 100 complete control); for Plant response rating (0 to 100 scale), Ryegrass, Italian: 0 is no effect, 100 is complete control
Outline: (§1)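 Pre: soil sprayed at seeding. Post: seedlings treated at 1–2 leaves (2–10 cm). Vehicle non-phytotoxic solvent mix with surfactant; loam–sand medium; greenhouse; visual injury read at 10 or 12 days, scale 0–100.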

[2] = tested on: wheat (Triticum aestivum); assay: Test C preemergence, wheat; settings: 0 is no effect, 100 is complete control
rice (Oryza sativa) = assay: Test D flooded paddy test, rice; design: key: 0 = no effect, 100 = complete control; settings: 250 g ai/ha, Flood; applied to paddy water at 2-leaf stage; visual rating after 13 days; scale 0 (no effect) to 100 (complete control)
Outline: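 Under 3 cm of standing water, kept constant after treatment, 2-leaf plants received compound via the paddy water. Ratings on a 0–100 control scale were assigned visually after 13 greenhouse days; a dash denotes no test result.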

kochia (Bassia scoparia) = assay: Test C postemergence, kochia; settings: for Kochia plant response rating: visual injury, 0 to 100 scale (0 no effect, 100 complete control); for Plant response rating (0 to 100 scale), Kochia: 0 is no effect, 100 is complete control
Outline: as §1

[3] = tested on: foxtail, giant (giant foxtail, Setaria faberi); assay: Test C postemergence, giant foxtail; settings: for Foxtail, Giant plant response rating: visual injury, 0 to 100 scale (0 no effect, 100 complete control); for Plant response rating (0 to 100 scale), Foxtail, Giant: 0 is no effect, 100 is complete control
[4] = tested on: blackgrass (Alopecurus myosuroides); assay: Test C postemergence, blackgrass; settings: visual injury, 0 to 100 scale (0 no effect, 100 complete control)
Outline: as §1

[5] = tested on: galium (catchweed bedstraw, Galium aparine); assay: Test C postemergence, galium; settings: for Galium plant response rating: visual injury, 0 to 100 scale (0 no effect, 100 complete control); for Plant response rating (0 to 100 scale), Galium: 0 is no effect, 100 is complete control
[6] = tested on: ryegrass, Italian (Italian ryegrass, Lolium multiflorum); assay: Test C preemergence, Italian ryegrass; settings: 0 is no effect, 100 is complete control
Outline: as §1

| SMILES | Ryegrass, Italian plant response rating ([1]; 31 g ai/ha Postemergence) | Plant response rating (0 to 100 scale), Ryegrass, Italian ([1]; 125 g ai/ha Postemergence) | Plant response rating (0 to 100 scale), Wheat ([2]; 31 g ai/ha Preemergence) | Plant response rating (0 to 100 scale), Wheat ([2]; 125 g ai/ha Preemergence) | Plant response rating, Rice (rice (Oryza sativa)) | Kochia plant response rating (kochia (Bassia scoparia); 31 g ai/ha Postemergence) | Plant response rating (0 to 100 scale), Kochia (kochia (Bassia scoparia); 125 g ai/ha Postemergence) | Foxtail, Giant plant response rating ([3]; 31 g ai/ha Postemergence) | Plant response rating (0 to 100 scale), Foxtail, Giant ([3]; 125 g ai/ha Postemergence) | Blackgrass plant response rating ([4]; 31 g ai/ha Postemergence) | Galium plant response rating ([5]; 31 g ai/ha Postemergence) | Plant response rating (0 to 100 scale), Galium ([5]; 125 g ai/ha Postemergence) | Plant response rating (0 to 100 scale), Ryegrass, Italian ([6]; 31 g ai/ha Preemergence) | Plant response rating (0 to 100 scale), Ryegrass, Italian ([6]; 125 g ai/ha Preemergence) | Ryegrass, Italian plant response rating ([1]; 125 g ai/ha Postemergence) | Kochia plant response rating (kochia (Bassia scoparia); 125 g ai/ha Postemergence) | Foxtail, Giant plant response rating ([3]; 125 g ai/ha Postemergence) | Blackgrass plant response rating ([4]; 125 g ai/ha Postemergence) | Galium plant response rating ([5]; 125 g ai/ha Postemergence) |
| --- | --- | --- | --- | --- | --- | --- | --- | --- | --- | --- | --- | --- | --- | --- | --- | --- | --- | --- | --- |
| Cc1c(N2CCC(OC3CC3)C2=O)cc(N(COC(=O)C(C)(C)C)S(=O)(=O)C(F)(F)F)c(C)c1F (centres unmarked) [Compound 23] | 50 | 100 | 10 | 30 | 40 | 30 | 80 | 0 | 80 | 10 | 90 | 100 | 30 | 100 |  |  |  |  |  |
| CC(=O)N(c1cc(N2CCC(OC3CC3)C2=O)c(C)cc1C)S(=O)(=O)C(F)(F)F (centres unmarked) [Compound 17] | 60 | 90 | 30 | 100 | 15 | 80 | 90 | 90 | 90 | 70 | 90 | 100 | 100 | 100 |  |  |  |  |  |
| Cc1cc(C)c(N2CCC(OCC3CCCC3)C2=O)cc1NS(=O)(=O)C(F)(F)F (centres unmarked) [Compound 57] | 20 |  | 20 | 80 | 10 | 50 |  | 60 |  | 40 | 50 |  | 70 | 90 | 60 | 70 | 70 | 80 | 90 |
| Cc1c(N2CCCC(OC3CCC3)C2=O)cc(N(COC(=O)C(C)(C)C)S(=O)(=O)C(F)(F)F)c(C)c1F (centres unmarked) [Compound 39] | 0 |  | 0 | 0 | 0 | 30 | 60 | 0 | 10 | 0 | 80 | 90 | 0 | 60 | 30 |  |  |  |  |
| Cc1c(NS(=O)(=O)C(F)(F)F)cc(N2CCC(OCC3CC3)C2=O)c(C)c1F (centres unmarked) [Compound 63] | 0 |  | 80 | 100 | 45 | 80 |  | 0 |  | 0 | 100 |  | 50 | 100 | 10 | 90 | 30 | 30 | 100 |
| Cc1cc(C)c(N2CC/C(=N\O)C2=O)cc1NS(=O)(=O)C(F)(F)F [Compound 10, 1,1,1-trifluoro-N-[5-[3-(hydroxyimino)-2-oxo-1-pyrrolidinyl]-2,4-dimethylphenyl]methanesulfonamide] | 80 | 80 | 90 | 100 | 0 | 60 | 90 | 40 | 90 | 60 | 100 | 100 | 50 | 100 |  |  |  |  |  |
